Test results taken from patent publication US9040523B2, “Antifungal 5,6-dihydro-4H-pyrrolo[1,2-α][1,4]-benzodiazepines and 6H-pyrrolo[1,2-α][1,4]benzodiazepines substituted with benzene derivatives” (JANSSEN PHARMACEUTICA NV, priority 2010, dated 2015).
Where a name gives a salt, the structure may show the parent alone.

How the values were obtained:
Assay type in all cases: cell-based
[1] = tested on: Cryptococcus neoformans B66663; assay: Antifungal activity in vitro (resazurin susceptibility screen), Inf. F; details: 37 °C, 24 hours, resa time 4 hours; for Inf. F pIC50: Cryptococcus neoformans B66663; for IC50: Cryptococcus neoformans, B66663, Cryptococcus neoformans B66663, read-out: Inf. F pIC50 (converted)
Description: (§1) The standard susceptibility screen was performed in 96-well plates (U-bottom, Greiner Bio-One). […] These serial dilutions (10 n1) were then spotted onto test-plates that could be stored in the dark at 4° C. for a maximum period of 2 weeks. […] The different fungal species/isolates (Table 3a) were cryopreserved and 1/1000 diluted in medium just prior to use. A standard inoculum of 200 μl containing 10^3 colony-forming unit (cfu) was then added to each well. A positive control (100% growth=fungal culture without antifungal) and a negative control (0% growth ═RPMI-MOPS medium) were included on each plate. […] [table]

[2] = tested on: Candida parapsilosis B66126; assay: Antifungal activity in vitro (resazurin susceptibility screen), Inf. D; details: Candida parapsilosis B66126, 37 °C, 24 hours, resa time 4 hours; for IC50: Lodderomyces parapsilosis, read-out: Inf. D pIC50 (converted)
Description: (§2) The standard susceptibility screen was performed in 96-well plates (U-bottom, Greiner Bio-One). […] These serial dilutions (10 n1) were then spotted onto test-plates that could be stored in the dark at 4° C. for a maximum period of 2 weeks. […] A standard inoculum of 200 μl containing 10^3 colony-forming unit (cfu) was then added to each well. A positive control (100% growth=fungal culture without antifungal) and a negative control (0% growth ═RPMI-MOPS medium) were included on each plate.

Microsporum canis B68128 = assay: Antifungal activity in vitro (resazurin susceptibility screen), Inf. B; details: 27 °C, 9 days, resa time 24 hours; for Inf. B pIC50: Microsporum canis B68128; for IC50: Microsporum canis, B68128, Microsporum canis B68128, read-out: Inf. B pIC50 (converted)
Description: as §2

[3] = tested on: Trichophyton mentagrophytes B70554; assay: Antifungal activity in vitro (resazurin susceptibility screen), Inf. G; details: 27 °C, 7 days, resa time 24 hours; for Inf. G pIC50: Trichophyton mentagrophytes B70554; for IC50: Trichophyton mentagrophytes, B70554, Trichophyton mentagrophytes B70554, read-out: Inf. G pIC50 (converted)
Description: as §2

[4] = tested on: Sporothrix schenkii B62482; assay: Antifungal activity in vitro (resazurin susceptibility screen), Inf. A; details: 27 °C, 4 days, resa time 24 hours, highest in-test concentration 64 μM; for Inf. A pIC50: Sporothrix schenkii B62482; for IC50: Sporothrix, B62482, Sporothrix schenkii B62482, read-out: Inf. A pIC50 (converted)
Description: as §1

[5] = tested on: Aspergillus fumigatus B42928; assay: Antifungal activity in vitro (resazurin susceptibility screen), Inf. E; details: Aspergillus fumigatus B42928, 27 °C, 48 hours, resa time 17 hours; for IC50: read-out: Inf. E pIC50 (converted)
Description: as §1

[6] = tested on: Trichophyton rubrum B68183; assay: Antifungal activity in vitro (resazurin susceptibility screen), Inf. C; details: Trichophyton rubrum B68183, 27 °C, 7 days, resa time 24 hours; for IC50: read-out: Inf. C pIC50 (converted)
Description: as §1

Row | Compound | Inf. F pIC50 [1] | Inf. D pIC50 [2] | Inf. B pIC50 (Microsporum canis B68128) | Inf. G pIC50 [3] | Inf. A pIC50 [4] | Inf. E pIC50 [5] | Inf. C pIC50 [6] | IC50 [1] [µM] | IC50 [2] [µM] | IC50 (Microsporum canis B68128) [µM] | IC50 [4] [µM] | IC50 [5] [µM] | IC50 [6] [µM] | IC50 [3] [µM]
1 | CC(O)c1ccc(C2NCc3c(ccc(Cl)c3Cl)-n3cccc32)cc1.Cl (stereo not drawn) [Compound 2, 4-(7,8-dichloro-5,6-dihydro-4H-pyrrolo[1,2-a][1,4]benzodiazepin-4-yl)-alpha-methyl-benzenemethanol .HCl] | <4.2 | <4.2 | 4.7 | <4.2 | <4.2 | <4.2 | <4.2 | – | – | – | – | – | – | –
2 | CC(O)c1ccc(C2NCc3cc(Cl)cc(Cl)c3-n3cccc32)cc1.Cl (stereo not drawn) [Compound 3, 4-(8,10-dichloro-5,6-dihydro-4H-pyrrolo[1,2-a][1,4]benzodiazepin-4-yl)-alpha-methyl-benzenemethanol .HCl] | 4.7 | <4.2 | 5.0 | 4.4 | <4.2 | <4.2 | 6 | – | – | – | – | – | – | –
3 | CC(=O)c1cccc(C2NCc3c(Cl)cccc3-n3cccc32)c1 (stereo not shown) [Compound 4, 1-[3-(7-chloro-5,6-dihydro-4H-pyrrolo[1,2-a][1,4]benzodiazepin-4-yl)phenyl]-ethanone] | – | – | – | – | – | – | – | > 63.1 | > 63.1 | 10 | > 63.1 | > 63.1 | 5.01 | –
4 | Br.CC(=O)c1ccc(C2NCc3c(Cl)cccc3-n3cccc32)cc1 (stereo not shown) [Compound 6, 1-[4-(7-chloro-5,6-dihydro-4H-pyrrolo[1,2-a][1,4]benzodiazepin-4-yl)phenyl]-ethanone .HBr] | <4.2 | <4.2 | 6.2 | – | 4.7 | 4.5 | 6.4 | – | – | – | – | – | – | –
5 | CC(=O)c1cc(C2NCc3c(Cl)cccc3-n3cccc32)ccc1F.Cl (stereo not shown) [Compound 7, 1-[5-(7-chloro-5,6-dihydro-4H-pyrrolo[1,2-a][1,4]benzodiazepin-4-yl)-2-fluorophenyl]-ethanone .HCl] | <4.2 | <4.2 | 5.1 | 5.2 | <4.2 | <4.2 | 6.0 | – | – | – | – | – | – | –
6 | CC(=O)c1ccc(C2NCc3c(ccc(Cl)c3Cl)-n3cccc32)cc1.Cl (stereo not shown) [Compound 9, 1-[4-(7,8-dichloro-5,6-dihydro-4H-pyrrolo[1,2-a][1,4]benzodiazepin-4-yl)phenyl]-ethanone .HCl] | 4.5 | <4.2 | 5.6 | 4.5 | 5.0 | <4.2 | 5.7 | – | – | – | – | – | – | –
7 | CC(=O)c1cccc(C2NCc3c(Cl)cc(Cl)cc3-n3cccc32)c1.Cl (stereo not shown) [Compound 10, 1-[3-(7,9-dichloro-5,6-dihydro-4H-pyrrolo[1,2-a][1,4]benzodiazepin-4-yl)phenyl]-ethanone .HCl] | <4.2 | <4.2 | 5.3 | 5.2 | <4.2 | <4.2 | 5.7 | – | – | – | – | – | – | –
8 | CC(=O)c1ccc(C2NCc3c(Cl)cc(Cl)cc3-n3cccc32)cc1.Cl (stereo not shown) [Compound 12, 1-[4-(7,9-dichloro-5,6-dihydro-4H-pyrrolo[1,2-a][1,4]benzodiazepin-4-yl)phenyl]-ethanone .HCl] | <4.2 | <4.2 | 4.9 | 5.1 | <4.2 | <4.2 | 5.7 | – | – | – | – | – | – | –
9 | CS(=O)(=O)c1cccc(C2=NCc3c(Cl)cccc3-n3cccc32)c1 [Compound 27] | 4.2 | <4.2 | 5.2 | 5.1 | <4.2 | <4.2 | 5.1 | – | – | – | – | – | – | –
10 | CS(=O)(=O)c1ccc(C2=NCc3c(Cl)cc(Cl)cc3-n3cccc32)cc1 [Compound 30, 7,9-dichloro-4-[4-(methylsulfonyl)phenyl]-6H-pyrrolo[1,2-a][1,4]benzodiazepine] | – | – | – | – | – | – | – | 15.8 | > 63.1 | 3.98 | 50.1 | 63.1 | 2 | 6.31
11 | OCCc1ccc(C2NCc3c(Cl)cc(Cl)cc3-n3cccc32)cc1 (stereo not shown) [Compound 34, 4-(7,9-dichloro-5,6-dihydro-4H-pyrrolo[1,2-a][1,4]benzodiazepin-4-yl)-benzeneethanol .HCl] | – | – | – | – | – | – | – | 31.6 | > 63.1 | 2 | > 63.1 | > 63.1 | 12.6 | 20
12 | Cl.OCCc1ccc(C2NCc3c(Cl)cccc3-n3cccc32)cc1 (stereo not shown) [Compound 35, 4-(7-chloro-5,6-dihydro-4H-pyrrolo[1,2-a][1,4]benzodiazepin-4-yl)-benzeneethanol .HCl] | 4.3 | <4.2 | 4.4 | 4.9 | <4.2 | <4.2 | 5.1 | – | – | – | – | – | – | –
13 | Cl.OCCc1ccc(C2NCc3cc(Cl)cc(Cl)c3-n3cccc32)cc1 (stereo not shown) [Compound 36, 4-(8,10-dichloro-5,6-dihydro-4H-pyrrolo[1,2-a][1,4]benzodiazepin-4-yl)-benzeneethanol .HCl] | 4.6 | <4.2 | 4.3 | 4.7 | <4.2 | <4.2 | 4.5 | – | – | – | – | – | – | –
14 | Cl.OCCc1ccc(C2NCc3c(ccc(Cl)c3Cl)-n3cccc32)cc1 (stereo not shown) [Compound 37, 4-(7,8-dichloro-5,6-dihydro-4H-pyrrolo[1,2-a][1,4]benzodiazepin-4-yl)-benzeneethanol .HCl] | 5.0 | <4.2 | <4.2 | 4.4 | 4.8 | 4.4 | 4.5 | – | – | – | – | – | – | –
15 | Cl.OCCc1ccc(C2NCc3c(Cl)ccc(Cl)c3-n3cccc32)cc1 (stereo not shown) [Compound 38, 4-(7,10-dichloro-5,6-dihydro-4H-pyrrolo[1,2-a][1,4]benzodiazepin-4-yl)-benzeneethanol .HCl] | 4.7 | <4.2 | 5.7 | 4.7 | <4.2 | <4.2 | 5.1 | – | – | – | – | – | – | –
